{
  "source": "patent US6821530B2",
  "about": "“Polymer composite compositions” (Shriners Hospitals for Children, priority 2000, dated 2004)",
  "key": {"[1]": {"test_system": "confluent tendon fibroblasts", "experiment": "Cytotoxicity test of NDGA and its oxidation products, CYQUANT viable cell number", "assay_type": "cell-based, calf", "experimental": "(§1) Cell cultures: Digital extensor tendons were excised fresh from new born calves euthanized at a local abattoir and held in Dulbecco's Phosphate Buffered Saline during dissection and preparation for culture. Tendons were minced, weighed, and then digested with 0.1% w/v testicular hyaluronidase in 0.15 M NaCl, 0.1 M NaH2PO4, pH 7.0 (5 ml/g wet tissue weight) at 37° C. for 45 minutes. The hyaluronidase wash was decanted and the tissue was next digested with 5 mg/g tissue of Pronase E and 5 mg/g tissue of collagenase in 4% bovine serum albumen in DMEM/Ham F12 medium at 37° C. overnight. Cells were isolated from the tissue residue and washed with PBS. Cells were dispersed in DMEM/Ham F12 medium, counted, and plated on 24-well culture plates. Cells were cultured in DMEM/Ham F12 containing 10% FBS unless otherwise noted.\nCytotoxicity tests: The potential toxicity of NDGA, its reaction products, and the NDGA cross-linked fibers was determined using confluent tendon fibroblasts. NDGA was tested by dissolving NDGA in DMSO, then directly diluting in the medium containing 10% FBS to the desired final concentrations. […] Fibroblasts were cultured in the presence of NDGA or its oxidation products for 24 hours, and then the number of viable cells was measured with the CYQUANT® Cell Proliferation Assay Kit (Molecular Probes)."}, "[2]": {"experiment": "NDGA quantitation in culture medium by capillary zone electrophoresis", "assay_type": "physicochemical", "design": "Initial NDGA remaining in medium: dose or concentration left out as unconfirmed", "experimental": "NDGA Quantitation: The amount of NDGA in the buffers, eluents, and medium was determined by capillary zone electrophoresis on a Dionex CES. A sodium borate buffer (10 mM sodium borate, 50 mM boric acid, pH 8.0) was chosen for electrophoresis because it was known that borate efficiently complexes with catechols and increases absorptivity (Waite et al., Methods. Enzymol. 107:397-413, 1984). Samples were diluted in electrophoresis buffer, loaded by electrophoresis (5000 V for 5 seconds) onto a […] inner diameter×80 cm long hollow glass capillary, and electrophoresed at 20 kV. NDGA was detected by absorbance at 280 nm. The amount of NDGA in the experimental samples was calculated from the peak area following calibration of the NDGA standards dissolved directly in capillary zone electrophoresis (CZE) buffer. Based on capillary zone electrophoretic analysis of NDGA-containing medium, NDGA disappears from the medium with time in culture, even in the absence of cells (FIGS. 13A and 13B). NDGA was dissolved in DMSO to 10 mM and then diluted 100-fold into the medium. For the zero time point, the medium containing NDGA was diluted 3-fold with CZE buffer and electrophoresed immediately. For the 24 hour time point, the medium was incubated at 37° C. in a cell culture incubator before diluting 3-fold and electrophoresing. […] The fate of the NDGA is unclear. Its disappearance may involve oxidation of the catechols to quinones, since the medium developed a brown pigment similar to that formed from chemically oxidized NDGA. In the medium containing […] NDGA, less than 10% of the initial NDGA remained after 24 hours, decreasing the NDGA concentration to below […] (FIGS. 13A and 13B)."}, "[3]": {"test_system": "primary tendon fibroblast cultures", "experiment": "Fibroblast replication after single NDGA exposure", "assay_type": "cell-based, calf", "experimental": "as §1\nEffect of NDGA on fibroblast replication. To determine whether NDGA or oxidation products derived from the cross-linking reaction influenced cell replication, primary tendon fibroblast cultures were treated with a single exposure at the start of culture with concentrations of NDGA from […]. Fibroblasts were subsequently cultured for 1, 2, and 4 weeks. At each time point, the number of viable cells in each treatment group was determined. The lower NDGA concentrations, […], had no effect on cell replication (FIG. 15)."}, "[4]": {"conditions": "medium containing, after 24 hours"}},
  "data": [
    {"smiles": "CC(Cc1ccc(O)c(O)c1)C(C)Cc1ccc(O)c(O)c1", "note": "(centres unmarked) [NDGA, Nordihydroguaiaretic acid]", "values": [
      {"measurement": "Reduction in viable cells", "setting": "[1]; 1000 mM NDGA, after 24 hr", "result": 80, "unit": "%"},
      {"measurement": "Effect on cell viability over that of DMSO alone", "setting": "[1]; NDGA at 1, 10, and 100 mM, 24 hours of exposure", "result": "little effect"},
      {"measurement": "NDGA vanished from medium", "setting": "[2]; 10 mM in DMSO diluted 100-fold into medium, 37° C., no cells, by 24 hours", "result": "over 95%"},
      {"measurement": "Initial NDGA remaining in medium", "setting": "[2]; [4]", "result": "less than 10%"},
      {"measurement": "NDGA concentration in medium", "setting": "[2]; [4]", "result": "below 100 mM"},
      {"measurement": "Effect on cell replication", "setting": "[3]; 1 and 10 mM NDGA, culture 1, 2, 4 weeks", "result": "no effect"},
      {"measurement": "Effect on cell replication", "setting": "[3]; highest NDGA concentration", "result": "toxic to the cells"},
      {"measurement": "Effect on cell replication", "setting": "[3]; one hundred millimolar NDGA, after first week rate similar to control", "result": "temporary delay in replication"}
    ]}
  ]
}
